The values below come from ChEMBL document CHEMBL1201862, “PubChem BioAssay data set” (2004).

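Protocol summary: plate cells (96-well), add compound at 5 concentrations, incubate 48 h, interpolate endpoints linearly. GI50: concentration for 50% inhibition of growth.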 Active and inactive are the calls of the source. Rule as the data show it: active = GI50 up to about 1.1 µM and inactive = higher. A value given as a limit tells only on which side of the number the result lay.

Holding throughout (assay): growth of human tumour cells (NCI), 48 h
In test [1] the test system is HOP-62.
For test [2], the system named is HCT-15.
The test system of test [3] is OVCAR-3.
Test [4] concerns HCC 2998.
Test [5] has as its system MDA-N.
Test [6] deals with RPMI-8226.
The subject of test [7] is CAKI-1.
For test [8], the system named is NCI-H460.
In test [9] the test system is ACHN.
Test [10] concerns A498.
Test [11] concerns 786-0.
In test [12] the test system is COLO 205.
Test [13] concerns RXF 393.
The test system of test [14] is PC-3.
The subject of test [15] is NCI-H522.
For test [16], the system named is NCI-H23.
For test [17], the system named is HT-29.
For test [18], the system named is SF-295.
In test [19] the test system is NCI/ADR-RES.
For test [20], the system named is NCI-H226.
Test [21] concerns Hs-578T.
For test [22], the system named is IGROV-1.
Test [23] concerns U-251.
Test [24] concerns LOX IMVI.
The subject of test [25] is CCRF-CEM.
Test [26] has as its system SF-268.
Test [27] relates to OVCAR-8.
Test [28] relates to A549.
Test [29] has as its system MCF7.
The subject of test [30] is KM12.
In test [31] the test system is SK-MEL-5.
For test [32], the system named is DU-145.
The subject of test [33] is UO-31.
The test system of test [34] is SF-539.
Test [35] relates to EKVX.
In test [36] the test system is SW-620.
Test [37] relates to TK-10.
In test [38] the test system is OVCAR-5.
For test [39], the system named is UACC-257.
Test [40] has as its system K562.
Test [41] has as its system HCT-116.
Test [42] has as its system OVCAR-4.
In test [43] the test system is SNB-75.
Test [44] concerns MDA-MB-231.
Test [45] has as its system SK-MEL-28.
Test [46] relates to SNB-19.
Test [47] relates to Malme-3M.
Test [48] concerns SN12C.
In test [49] the test system is MDA-MB-435.
Test [50] deals with HL-60.
For test [51], the system named is MOLT-4.
Test [52] has as its system SR.
Test [53] relates to T47D.
In test [54] the test system is SK-OV-3.

Regarding `O=c1nc2ccc3sc4ccccc4c(=O)c3n2c(=O)[nH]1`, the GI50 in test [1] was > 100 µM (inactive); in test [2], more than 100 µM; in test [3], > 100 µM (inactive); in [4] it was > 100 µM (inactive); in test [5], > 100 µM (inactive); in test [6], > 100 µM (inactive). Besides, the GI50 in [7], in test [8], in test [9], in [10], in test [11] and in test [12] was > 100 µM (inactive) each time. For the same compound, the GI50 is > 100 µM (inactive) in test [13]; > 100 µM (inactive) in [14]; 73.8 µM (inactive) in [15]; > 100 µM (inactive) in test [16]; > 100 µM (inactive) in [17]; > 100 µM (inactive) in [18]. Moreover, the GI50 in [19] was > 100 µM (inactive); in [20], > 100 µM (inactive); in test [21], 19.4 µM (inactive); in test [22], > 100 µM (inactive); in [23] it was > 100 µM (inactive); in test [24] it was > 100 µM (inactive). Further, the GI50 is > 100 µM (inactive) in [25]; 98.2 µM (inactive) in [26]; > 100 µM (inactive) in [27]; > 100 µM (inactive) in [28]; > 100 µM (inactive) in test [29]; > 100 µM (inactive) in [30]. For the same compound, the GI50 in [31] was > 100 µM (inactive); in test [32], > 100 µM (inactive); in test [33], > 100 µM (inactive); in test [34] it was > 100 µM (inactive); in [35], 11.7 µM (inactive); in [36], > 100 µM (inactive). Also, the GI50 in test [37] was 66.7 µM (inactive); in test [38], > 100 µM (inactive); in test [39], > 100 µM (inactive); in test [40], > 100 µM (inactive); in test [41], > 100 µM (inactive); in [42], > 100 µM (inactive). Moreover, the GI50 in test [43], in [44], in test [45], in test [46], in [47] and in test [48] was > 100 µM (inactive) in each case. Further, the GI50 in test [49] was > 100 µM (inactive); in [50], 83.4 µM (inactive); in test [51], > 100 µM (inactive); in [52], > 100 µM (inactive).

Turning to `CC(=O)O[C@H]1C(=O)[C@@]2(C)C(C(OC(=O)c3ccccc3)[C@]3(O)CC(OC(=O)[C@H](OC(=O)CCC(=O)O)C(NC(=O)c4ccccc4)c4ccccc4)C(C)=C1C3(C)C)C1(OC(C)=O)COC1C[C@@H]2O` (some centres not stated), the GI50 was 1.53 µM in [2]; < 0.01 µM (active) in test [3]; < 0.0203 µM (active) in test [53]; 0.0191 µM (active) in test [4]; 3.75 µM (inactive) in [7]; < 0.01 µM (active) in test [8]. For the same compound, the GI50 in test [12] was < 0.01 µM (active); in test [14], < 0.01 µM (active); in [17], < 0.01 µM (active); in test [21], < 0.01 µM (active); in test [22] it was 0.0103 µM (active); in [23] it was < 0.01 µM (active). Moreover, the GI50 in [24] was < 0.0122 µM (active); in test [26], < 0.0166 µM (active); in test [28], < 0.0199 µM (active); in test [30], < 0.01 µM (active); in [31] it was < 0.01 µM (active); in test [36], < 0.01 µM (active). Besides, the GI50 in [37] was 0.265 µM (active); in [40] it was < 0.01 µM (active); in test [42], 17.1 µM (inactive); in test [46] it was 0.0306 µM (active); in test [51], < 0.0156 µM (active); in test [52], < 0.01 µM (active).

On to `Nc1ccn([C@@H]2CS[C@H](CO)O2)c(=O)n1` [LAMIVUDINE], for which, in [16], the GI50 is > 100 µM (inactive).

Take `COc1cc(O)c2c(=O)c(OC)c(-c3ccc(OC)c(OC)c3)oc2c1` [RETUSIN]: the GI50 was more than 100 µM in test [2]; 87.7 µM (inactive) in [6]; 6.17 µM (inactive) in [7]; 20 µM (inactive) in test [8]; 16.1 µM (inactive) in test [10]; > 100 µM (inactive) in test [12]. Moreover, the GI50 was 2.79 µM (inactive) in test [15]; 15.1 µM (inactive) in test [23]; > 100 µM (inactive) in test [25]; > 100 µM (inactive) in test [33]; > 100 µM (inactive) in test [36]; > 100 µM (inactive) in [37]. Moreover, the GI50 in test [39] was > 100 µM (inactive); in test [54], 5.02 µM (inactive); in test [49] it was > 100 µM (inactive).
